Test results from patent US20170146519A1, “STING AGONISTS AND METHODS OF SELECTING STING AGONISTS” (priority 2015, published 2017).

Assays:
[1] = system: IRF3 S386 phosphorylation; assay type: cell-based, human
[2] = system: human peripheral blood mononuclear cells (PBMCs); assay type: cell-based
[3] = system: IRF3/IFN-dependent genes in THF; assay type: cell-based, human
[4] = system: innate antiviral genes IFNβ, ISG15, IFIT2, Viperin; experiment: qPCR of innate antiviral genes in RAW264.7 cells; assay type: cell-based, mouse; settings: RAW264.7, 8 h, range of DMXAA concentrations
Source text: (§1) Multiple molecular analogs of G10 were thus constructed in an attempt to identify one that is active in both human and mouse cells. While this allowed characterization of essential and nonessential moieties within the molecule (FIG. 17), no derivatives were identified that were active across species. […] As such, the compound has been explored for multiple immunotherapeutic uses including anti-angiogenesis (Cao Z et al, Cancer Res 61, 1517-1521 (2001); incorporated by reference herein), vaccine adjuvanticity (Tang C K et al, PLoS ONE 8, e60038 (2013); incorporated by reference herein), anti-tumor immunology and antiviral activity (Guo F et al, Antimicrob Agents Chemother 59, 1273-1281 (2015); incorporated by reference herein). Patterns of DMXAA-stimulated innate immune activation in murine cells were then explored to evaluate their resemblance with those induced by G10 in human cells. FIG. 11A illustrates that DMXAA-induced IRF3 phosphorylation in RAW264.7 macrophage-like cells is detectable by 1 h post-treatment. […]
Total RNA was isolated from cells and DNased using a DNA Free RNA Isolation kit according to the manufacturer's protocol (Zymo Research) and quantified by UV spectrometry. […]

[5] = system: Chikungunya virus (CHIKV); experiment: Mouse model of CHIKV infection, serum viral titers; assay type: in vivo, C57Bl/6J mice
IRF3 phosphorylation = experiment: Immunoblot of IRF3 phosphorylation in RAW264.7 cells; assay type: cell-based, mouse; settings: RAW264.7, 100 μM DMXAA
Source text: as §1

[6] = system: secreted bioactive type I or III interferon
[7] = system: Chikungunya virus (CHIKV); experiment: microbe, parasite or virus in culture; assay type: cell-based
Mx2 and ISG56 proteins = assay type: cell-based, human
Sindbis virus (SINV) = assay type: cell-based; settings: 48 h
mouse STING-CTD = molecular target: T1, mouse STING-CTD (Mus musculus, UniProt Q3TBT3); experiment: Thermal shift assay (differential scanning fluorimetry), mouse STING-CTD; assay type: binding; settings: 1 μg recombinant protein, SYPRO Orange, various concentrations
T1 construct: mouse STING-CTD (AA 137-378); 6xHIS; made in house; host or cells: E. coli BL21 (DE3)pLysS
T1 sequence (Q3TBT3 137-378): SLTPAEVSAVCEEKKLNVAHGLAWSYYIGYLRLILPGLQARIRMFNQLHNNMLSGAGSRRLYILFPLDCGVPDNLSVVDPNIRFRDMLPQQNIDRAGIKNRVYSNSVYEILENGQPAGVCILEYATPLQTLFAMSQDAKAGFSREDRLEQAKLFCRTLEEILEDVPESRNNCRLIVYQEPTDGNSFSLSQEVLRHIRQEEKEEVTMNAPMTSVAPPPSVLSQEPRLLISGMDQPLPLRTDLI

[8] = system: IRF3/IFN-dependent luciferase (LUC) in THF-ISRE; assay type: cell-based, human
Vaccinia Virus (VACV) = assay type: cell-based
[9] = system: Venezuelan Equine Encephalitis Virus (VEEV); experiment: microbe, parasite or virus in culture; assay type: cell-based
[10] = system: human umbilical microvascular endothelial cells; assay type: cell-based
West Nile Virus (WNV) = assay type: cell-based
THP-1 cells = assay type: cell-based, human
human STING-CTD = molecular target: T2, human STING-CTD (Homo sapiens, UniProt Q86WV6); experiment: Thermal shift assay (differential scanning fluorimetry), human STING-CTD; assay type: binding; settings: 1 μg recombinant protein, SYPRO Orange, various concentrations
T2 construct: human STING-C-terminal domain (CTD; AA 137-379); 6xHIS; made in house; host or cells: E. coli BL21 (DE3)pLysS

[11] = system: NF-κB-dependent genes (IL8, IL1β, MIP1α) in THF; assay type: cell-based, human
[12] = system: NF-κB-dependent LUC in THF reporter cells; assay type: cell-based, human

T2 sequence (Q86WV6 137-379): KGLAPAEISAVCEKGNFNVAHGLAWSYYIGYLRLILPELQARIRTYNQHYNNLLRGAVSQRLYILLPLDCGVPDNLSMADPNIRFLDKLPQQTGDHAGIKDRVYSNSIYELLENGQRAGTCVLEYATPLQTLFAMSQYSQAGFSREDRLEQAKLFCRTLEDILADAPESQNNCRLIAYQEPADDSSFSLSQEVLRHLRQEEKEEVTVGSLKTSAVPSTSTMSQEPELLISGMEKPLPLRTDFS

## Nc1nc2c(ncn2[C@@H]2O[C@@H]3COP(=O)(O)O[C@H]4[C@@H](O)[C@H](n5cnc6c(N)ncnc65)O[C@@H]4COP(=O)(O)O[C@@H]2[C@@H]3O)c(=O)[nH]1 [2′3′-cGAMP, reference compound]
[1]
  IRF3 S386 phosphorylation in cells lacking STING: absence of IRF3 S386 phosphorylation
  IRF3 phosphorylation in cells lacking IPS-1: remains intact
  time post exposure at which phosphorylation of IRF3 S386 is detectable: 1 h
[2]
  expression of IFIT1, IFIT2, IFNβ, ISG15, OAS and Viperin mRNA in PBMC: similarly capable of activating transcription of these genes
[3]
  mRNA synthesis of IFIT1, IFIT2, ISG15, Viperin, OAS, Mx2 over a concentration range, compared with G10: stronger mRNA synthesis

## Cc1ccc2c(=O)c3cccc(CC(=O)O)c3oc2c1C [DMXAA, 5,6-dimethylxanthenone-4-acetic acid]
[4]
  transcription of IFNβ, ISG15, IFIT2 and Viperin: dose-dependent transcription
[5]; 25 mg/kg intraperitoneally 3 h pre-infection, 1000 PFU CHIKV
  serum associated CHIKV at 72 h post infection: undetectable by plaque assay
[5]; 25 mg/kg intraperitoneally 6 h post infection
  serum associated CHIKV at 72 h post infection: still undetectable
[5]; mouse, in vivo
  serum associated CHIKV at 72 h post infection: diminished relative to DMSO-treated animals but this difference was not statistically significant
IRF3 phosphorylation
  time post-treatment at which IRF3 phosphorylation is detectable: ≤ 1 h

## O=C(NCc1ccco1)c1ccc2c(c1)N(Cc1c(F)cccc1Cl)C(=O)CS2 [G10, 4-(2-chloro-6-fluorobenzyl)-N-(furan-2-ylmethyl)-3-oxo-3,4-dihydro-2H-benzo[b][1,4]thiazine-6-carboxamide]
[6]
  IFN secretion by cells lacking IPS-1: significantly diminished relative to wild type cells
  IFN secretion by cells lacking STING: failed to secrete IFN
  IFN secretion by wild type THF cells: IFN secretion was detected
[7]
  CHIKV replication in cells lacking IRF3: ability of G10 to block replication of CHIKV and VEEV is lost
  reduction of CHIKV replication: by over three logs
[7]; 48 h
  CHIKV replication in cells lacking IPS-1: diminishes replication of all three virus types by multiple logs
  CHIKV replication in cells lacking STING: ability of G10 to block virus replication is absent
[7]; Chikungunya virus, read-out: IC90 CHIKV replication
  IC90: 8.01 µM
Mx2 and ISG56 proteins
  synthesis of Mx2 and ISG56 proteins: capable of triggering synthesis of Mx2 and ISG56 proteins
[1]
  IRF3 S386 phosphorylation in cells lacking STING: elimination of G10-induced IRF3 S386 phosphorylation
  IRF3 phosphorylation in cells lacking IPS-1: functional
  phosphorylation of IRF3 S386: stimulates phosphorylation of IRF3
  time post exposure at which phosphorylation of IRF3 S386 is detectable: 30 m
Sindbis virus (SINV)
  SINV replication in cells lacking IPS-1: diminishes replication of all three virus types by multiple logs
Mouse STING-CTD
  thermal stability of purified mouse STING-CTD: did not increase the protein's thermal stability
[8]
  IFN/IRF3-dependent LUC expression: able to induce LUC expression in a dose-dependent manner
  IRF3/IFN-dependent LUC expression in cells lacking IRF3: abrogated
  IRF3/IFN-dependent LUC expression in cells lacking STAT1: induce LUC expression in the absence of STAT1
  IRF3/IFN-dependent LUC induction in cells lacking IPS-1: strong LUC induction
  IRF3/IFN-dependent LUC induction in cells lacking STING: fail to activate appreciable LUC
  LUC signal in high-throughput screen: third highest signal of all those screened
Vaccinia Virus (VACV)
  reduction of VACV growth: by approximately one log
[9]
  VEEV replication in cells lacking IRF3: ability of G10 to block replication of CHIKV and VEEV is lost
[9]; 24 h
  VEEV replication in cells lacking IPS-1: diminishes replication of all three virus types by multiple logs
  VEEV replication in cells lacking STING: ability of G10 to block virus replication is absent
[9]; Venezuelan equine encephalitis virus, read-out: IC90 VEEV replication
  IC90: 24.6 µM
[2]
  expression of IFIT1, IFIT2, IFNβ, ISG15, OAS and Viperin mRNA in PBMC: to degrees that were proportional to compound concentration
  transcription of NF-κB-dependent genes MIP1α and IL1β in PBMC: also transcriptionally induced
[10]
  expression of IRF3-, IFN- and NF-κB-dependent genes in endothelial cells: responded to G10 exposure by expressing IRF3-, IFN-, and NF-κB-dependent genes
West Nile Virus (WNV)
  reduction of WNV growth: by less than one log
THF cells
  cytotoxicity: low cytotoxicity even at high concentrations
THP-1 cells
  IRF3 activation or IRF3-dependent gene expression in THP-1: does not induce IRF3 activation or IRF3-dependent gene expression
[3]
  IFNβ and IFNλ1 mRNA transcription: leads to transcription of both IFNβ and IFNλ1 mRNAs
  ISG54, ISG15 and Viperin mRNA in cells lacking IPS-1: highly transcribed
  ISG54, ISG15 and Viperin mRNA in cells lacking STING: remain comparatively unstimulated
  Mx2 and OAS mRNA induction: substantial induction
  mRNA of IRF3/IFN-dependent genes (ISG54, ISG56, ISG15, Viperin): led to transcription of cellular genes triggered by IRF3/IFN-dependent signaling
Human STING-CTD
  thermal stability of purified human STING-CTD: did not increase the protein's thermal stability
[11]
  mRNA synthesis of endogenous NF-κB-dependent genes (IL8, IL1β, MIP1α): failed to stimulate mRNA synthesis
[12]
  NF-κB-dependent LUC transcription: no G10-associated stimulation of NF-κB-dependent transcription was detected
